Target: T1, Pex1/Pex6_WB (Pex1-Strep2/His-Pex6(E832Q)) heterohexamer (Saccharomyces cerevisiae, UniProt P24004+P33760, P33760:E832Q)
T1 construct: full-length Pex1 with C-terminal Strep2 tag and Pex6(E832Q, D2 Walker B) with N-terminal His tag, co-expressed in S. cerevisiae MH 272/3f alpha; heterohexamer of alternating Pex1 and Pex6 (trimer of dimers); endogenous peptide trapped in D2 pore
T1 sequence (P24004 1-1043): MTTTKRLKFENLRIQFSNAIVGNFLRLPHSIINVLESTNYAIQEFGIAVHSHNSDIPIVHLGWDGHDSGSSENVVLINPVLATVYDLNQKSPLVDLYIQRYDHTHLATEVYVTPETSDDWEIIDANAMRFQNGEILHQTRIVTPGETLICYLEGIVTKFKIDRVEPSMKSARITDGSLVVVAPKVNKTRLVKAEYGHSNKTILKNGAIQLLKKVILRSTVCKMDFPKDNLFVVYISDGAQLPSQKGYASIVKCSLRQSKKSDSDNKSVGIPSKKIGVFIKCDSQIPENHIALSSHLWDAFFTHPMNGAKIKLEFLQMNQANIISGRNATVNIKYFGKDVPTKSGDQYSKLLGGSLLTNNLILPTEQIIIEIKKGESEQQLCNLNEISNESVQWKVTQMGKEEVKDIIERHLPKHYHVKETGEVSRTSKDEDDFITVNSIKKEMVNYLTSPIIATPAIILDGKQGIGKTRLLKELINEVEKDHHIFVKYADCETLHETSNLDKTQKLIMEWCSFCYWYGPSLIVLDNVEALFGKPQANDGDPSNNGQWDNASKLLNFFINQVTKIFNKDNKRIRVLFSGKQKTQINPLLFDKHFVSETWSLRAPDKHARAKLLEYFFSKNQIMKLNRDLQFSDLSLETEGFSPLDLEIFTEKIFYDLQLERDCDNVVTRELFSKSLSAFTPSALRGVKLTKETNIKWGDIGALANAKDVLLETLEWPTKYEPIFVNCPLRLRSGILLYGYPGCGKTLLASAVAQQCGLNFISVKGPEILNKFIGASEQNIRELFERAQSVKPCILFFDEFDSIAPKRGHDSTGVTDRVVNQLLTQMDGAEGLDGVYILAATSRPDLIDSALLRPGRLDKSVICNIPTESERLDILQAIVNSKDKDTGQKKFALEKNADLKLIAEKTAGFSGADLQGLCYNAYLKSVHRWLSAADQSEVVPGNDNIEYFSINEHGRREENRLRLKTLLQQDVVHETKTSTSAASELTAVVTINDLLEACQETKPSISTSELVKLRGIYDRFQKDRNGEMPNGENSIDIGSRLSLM
T1 sequence (P33760 1-1030 E832Q): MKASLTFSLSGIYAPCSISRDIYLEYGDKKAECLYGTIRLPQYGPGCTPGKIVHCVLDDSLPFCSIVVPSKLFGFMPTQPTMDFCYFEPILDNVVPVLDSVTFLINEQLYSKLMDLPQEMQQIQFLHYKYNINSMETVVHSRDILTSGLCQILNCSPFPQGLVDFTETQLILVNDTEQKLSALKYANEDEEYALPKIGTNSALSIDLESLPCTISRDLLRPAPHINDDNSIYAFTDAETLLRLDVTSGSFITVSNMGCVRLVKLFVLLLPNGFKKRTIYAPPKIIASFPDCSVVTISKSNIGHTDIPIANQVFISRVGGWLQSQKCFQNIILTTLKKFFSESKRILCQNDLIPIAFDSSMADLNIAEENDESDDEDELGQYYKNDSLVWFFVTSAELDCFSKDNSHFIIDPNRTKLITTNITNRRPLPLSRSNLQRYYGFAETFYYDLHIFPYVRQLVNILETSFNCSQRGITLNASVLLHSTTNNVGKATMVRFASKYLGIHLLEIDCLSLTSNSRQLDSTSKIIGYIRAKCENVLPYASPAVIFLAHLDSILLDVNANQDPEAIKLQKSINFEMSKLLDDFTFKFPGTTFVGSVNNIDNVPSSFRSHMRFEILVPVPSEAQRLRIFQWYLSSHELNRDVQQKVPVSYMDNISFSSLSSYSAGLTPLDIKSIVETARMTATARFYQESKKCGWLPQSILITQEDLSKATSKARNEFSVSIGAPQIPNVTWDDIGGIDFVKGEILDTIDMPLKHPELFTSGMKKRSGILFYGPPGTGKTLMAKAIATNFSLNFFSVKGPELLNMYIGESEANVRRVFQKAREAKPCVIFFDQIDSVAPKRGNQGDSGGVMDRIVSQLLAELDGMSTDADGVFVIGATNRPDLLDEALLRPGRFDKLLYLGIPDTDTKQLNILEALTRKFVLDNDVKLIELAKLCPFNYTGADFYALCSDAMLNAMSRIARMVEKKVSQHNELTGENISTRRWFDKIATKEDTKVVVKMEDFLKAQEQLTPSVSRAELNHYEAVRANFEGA
Test: cryo-EM structure
Type: binding

SMILES: Nc1ncnc2c1ncn2[C@@H]1O[C@H](COP(=O)(O)OP(=O)(O)O)[C@@H](O)[C@H]1O [ADP]
- cryo-EM structure (D2 sites of bottom and seam subunits, nucleotide assigned from density and pocket opening, not with absolute confidence, no ADP added (ATP in purification)): D2 domains are indeed in an ADP-bound state

SMILES: Nc1ncnc2c1ncn2[C@@H]1O[C@H](COP(=O)(O)OP(=O)(O)OP(=O)(O)O)[C@@H](O)[C@H]1O [ATP]
- cryo-EM structure (Mg2+, 1-3 mM ATP in purification, bound at all six D1 sites (not hydrolysed) and at D2 sites of the substrate-engaged subunits, single-seam 8C0V and twin-seam 8C0W): all ATPase domains of the D1 ring are bound to ATP

From article PMC10518020, “Structure of the peroxisomal Pex1/Pex6 ATPase complex bound to a substrate” (Nature Communications, 2023)
